Patent US20260284079A1, “LIPID PRODRUGS OF ALLOPR[…] USES THEREOF” (Seaport Therapeutics, Inc., priority 2023, published 2026)

What was measured:
[1] = Stanford Sleepiness Scale (SSS) and MOAA/S; assay type: in vivo, human
Excerpt: Part 1 Exploratory Objectives: To characterize the pharmacodynamic (PD) effects, and the PK/PD relationship, of Compound 1 on select clinical outcome assessments (COAs) of central nervous system effects following ascending single oral doses of Compound 1 (e.g., Stanford Sleepiness Scale (SSS), Modified Observer's Assessment of Alertness/Sedation Scale (MOAA/S), Sleep Quality Scale (SQS)). Part 1 Exploratory Endpoints: Changes from Baseline in SSS, MOAA/S, and/or SQS.
Part 3 Exploratory Objective: to characterize the PD effects, and the PK/PD relationships of Compound 1 on select effects following multiple oral doses of Compound 1. Part 3 Exploratory Endpoints: changes from baseline in qEEG, SSS, MOAA/S, the SQS, Cogstate, Body Sway, and video-oculography (VOG) assessment.
Participants were assessed using metrics as outlined below. The SSS is a one item self-report questionnaire that measures and quantifies progressive steps in the level of sleepiness throughout the day. Subjects select one of seven statements that best represents their level of perceived sleepiness at a given timepoint, as depicted in Table 7.
The MOAA/S is a clinical outcome assessment that measures a subject's level of alertness/sedation as determined by a rater; in its modified form, it uses only the responsiveness component of the original Observer's Assessment of Alertness/Sedation Scale. Responsiveness, as a measure of sedation, was assessed and scored on a scale of 0 to 5 as outlined in Table 8.

[2] = Sleep Quality Scale (SQS); assay type: in vivo, human; settings: all cohorts
Experimental: The scale was administered in the morning, and subjects are asked to rate their sleep quality of the past 7 days, ranging from terrible (score of 0), poor (scores of 1-3), fair (scores of 4-6), good (scores of 7-9), and excellent (score of 10).

[3] = Quantitative electroencephalogram (qEEG); assay type: in vivo, human
Excerpt: Quantitative Electroencephalogram (qEEG or EEG) has gained prominence as a useful biomarker in human drug studies as it is continuous, objective, repeatable, sensitive, reproducible, non-invasive and highly translatable from nonclinical data. EEG serves as biomarker in this protocol and provides PD outcomes for PK-PD modeling, thus enabling a more thorough understanding of the pharmacological effects of Compound 1. In addition, EEG can provide useful safety information regarding detection of epileptiform activity and any pro-convulsive effects of the study drug. Data outputs included spectral analysis and flat brain mapping, among others.
EEG was collected at multiple time points before and after dosing on Day 1 and Day 7 of the MAD portion of the study except for Cohort 8. For a given recording, the subject was fitted with a cap containing the electrodes. For each session, recordings were collected for approximately 15 minutes while subjects are sitting quietly, and include portions with eyes open and eyes closed.
The qEEG is a quantitative measurement of brain oscillations considering different frequency levels. Resting-state brain activity was recorded in 2 conditions (eyes closed and eyes open). For each electrode, a spectral analysis of the EEG signal was carried out to derive absolute and relative powers in standard frequency bands. […]

[4] = Food effect study, PK (Example 1 Part 2)
[5] = Single ascending dose (SAD) study, PK (Example 1 Part 1)
[6] = Multiple ascending dose (MAD) study, PK (Example 1 Part 3); settings: allopregnanolone and combined allopregnanolone

SMILES: CCCCCCCC(=O)OCC(COC(=O)CCCCCCC)OC(=O)CC(C)CC(=O)OCOC(=O)O[C@@H]1CC[C@@]2(C)[C@@H](CC[C@@H]3[C@@H]2CC[C@]2(C)[C@@H](C(C)=O)CC[C@@H]32)C1 (some centres unmarked) [Compound 1]
- change from baseline in SSS and MOAA/S ([1]; Cohort 6 (Part 3), 500 mg, compared to lower doses): greater magnitude of effect from baseline
- change from baseline in SSS and MOAA/S score ([1]; Cohorts 1, 2, 2b (Part 1), single doses): dose-dependent increase from baseline in the Stanford Sleepiness Scale (SSS) and a decrease from baseline in the MOAA/S score
- change from baseline in SSS and MOAA/S ([1]; Cohorts 4, 5, 7, 8 (Part 3), 250 mg and 375 mg, early days of dosing): low magnitude of change from baseline
- time of maximum changes in SSS and MOAA/S ([1]; Part 1): 3-5 hours post-dose
- time of return to baseline levels of SSS and MOAA/S ([1]; Part 1, all treatment groups): ≤ 12 hours post-dose
- difference in mean change from baseline between fed (HF or LF) and fasted states ([1]; cohort 3, 140 mg): no apparent difference
- sleep quality as measured by SQS [2]: no meaningful improvements or worsening
- qEEG power for the β-band (β1, β2, β3) ([3]; cohorts 4 (250 mg), 5 (375 mg), 6 (500 mg)): dose-dependent increase in power
- time of maximum qEEG effects following administration ([3]; day 1 and day 7): approximately 4 hours
- maximal concentrations and exposure values, combined allopregnanolone compared to allopregnanolone ([4]; 140 mg food effect study): approximately 15 times higher
- increase of AUC0-t, AUC0-inf and Cmax in fed (LF) group compared to fasted and fed (HF) groups ([4]; allopregnanolone and combined allopregnanolone, 140 mg): 1.3 to 1.5 fold
- dose proportionality of mean plasma allopregnanolone and combined allopregnanolone concentrations ([5]; doses up to 560 mg): increased at a dose proportional rate
- oral bioavailability ([5]; human, oral): high oral bioavailability
- dose proportionality of several PK parameters ([5]; range of 750 to 1000 mg): greater than dose-proportional increase
- maximal concentrations and exposure values, combined allopregnanolone compared to allopregnanolone ([5]; single ascending doses): at least 10 times higher
- accumulation upon multiple dosing ([6]; once daily): minimal accumulation
- time to steady state ([6]; once daily administration): Day 2 and Day 3
